TGI data for 15 molecules are collected here from PubChem BioAssay (NCI).

Molecules are shown by their SMILES.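 Five compound concentrations were applied to cells in 96-well plates for 48 hours; endpoints were derived by simple linear interpolation of the resulting dose-response curve. TGI is the concentration that stops growth completely.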

Some test systems named below: KM12 colon; CAKI-1 renal; CCRF-CEM leukemia; IGROV1 ovarian; ACHN renal; HCT-15 colon; SNB-19 CNS; SK-MEL-5 melanoma; K-562 leukemia; OVCAR-4 ovarian.
Common to all, as to test: inhibition of tumour cell growth, NCI panel, 48 h

`O=[N+]([O-])c1ccc(N=Nc2c(O)[nH]c3ccc(Br)cc23)c([N+](=O)[O-])c1`: the TGI came out at 79.6 µM in the experiment on KM12 colon; 27.2 µM with CAKI-1 renal; 9.3 µM in the experiment on CCRF-CEM leukemia; 45.7 µM in the experiment with IGROV1 ovarian; 9.44 µM in the experiment with ACHN renal; 11.6 µM in the experiment with HCT-15 colon. The figures for the TGI in the experiment with SNB-19 CNS, in the experiment with SK-MEL-5 melanoma and with K-562 leukemia were 17.1 µM, 3.49 µM and 15.5 µM, respectively.

As to `c1ccc2c(c1)SCCCSCCCS2`, the TGI in the experiment on OVCAR-4 ovarian, with KM12 colon, in the experiment with CCRF-CEM leukemia, in the experiment with IGROV1 ovarian, with HCT-15 colon and in the experiment on SNB-19 CNS was greater than 100 µM throughout. The TGI with SK-MEL-5 melanoma and with K-562 leukemia was greater than 100 µM each time.

Consider `COc1ccc(Br)c(CCCCC(=O)O)c1`, for which the TGI in the experiment with OVCAR-4 ovarian, in the experiment with CAKI-1 renal, with CCRF-CEM leukemia, in the experiment on IGROV1 ovarian, in the experiment on ACHN renal and in the experiment with HCT-15 colon was greater than 100 µM throughout. In addition, the TGI in the experiment on SNB-19 CNS, in the experiment with SK-MEL-5 melanoma and in the experiment with K-562 leukemia was greater than 100 µM in each case.

With `CCOC(=O)c1c(-c2ccccc2)[nH]c2ccccc2c1=O`, the TGI in the experiment on OVCAR-4 ovarian, in the experiment on KM12 colon, in the experiment with CAKI-1 renal, in the experiment with IGROV1 ovarian, in the experiment on ACHN renal and in the experiment on HCT-15 colon was greater than 100 µM in each case. The TGI with SNB-19 CNS, in the experiment with SK-MEL-5 melanoma and with K-562 leukemia was greater than 100 µM each time.

Consider `COc1ccc(C(=O)Nc2ccccc2)cc1[N+](=O)[O-]`, for which the TGI in the experiment with KM12 colon, in the experiment with CAKI-1 renal, in the experiment with CCRF-CEM leukemia, with IGROV1 ovarian, with HCT-15 colon and in the experiment with SNB-19 CNS was greater than 100 µM throughout. Moreover, the TGI in the experiment with SK-MEL-5 melanoma and in the experiment on K-562 leukemia was greater than 100 µM each time.

In the case of `CC1(C)CC[C@]2(C(=O)O)CCC3(C)C(=CCC4[C@@]5(C)CC[C@H](OC6OCC(O)C(O)C6OC6OC(CO)C(O)C(O)C6O)C(C)(C)C5CC[C@]43C)C2C1` (some centres not stated), the TGI worked out at 3.05 µM in the experiment with OVCAR-4 ovarian; 4.8 µM with KM12 colon; 3.06 µM with CAKI-1 renal; 5.23 µM with IGROV1 ovarian; 3.64 µM in the experiment on ACHN renal; 4.38 µM with HCT-15 colon. Besides, the TGI with SNB-19 CNS is 3.7 µM; in the experiment on SK-MEL-5 melanoma, 11.4 µM.

`COc1cc(C2c3cc4c(cc3[C@@H](OCCN)[C@H]3COC(=O)C23)OCO4)cc(OC)c1O` (some centres not stated): the TGI with OVCAR-4 ovarian worked out at 5.79 µM; in the experiment on CAKI-1 renal it was 1.52 µM; in the experiment with CCRF-CEM leukemia, 0.0409 µM; in the experiment on IGROV1 ovarian it was 4.55 µM; with ACHN renal, 2.01 µM; in the experiment with HCT-15 colon it was 24.7 µM. In addition, the results for the TGI with SNB-19 CNS and with SK-MEL-5 melanoma were 1.93 µM and 1.49 µM, respectively.

As to `COC(=O)[C@@]12C3=NO[C@]1(C(=O)OC)C(O[Si](C)(C)C(C)(C)C)C1OC(C)(C)OC1[C@@H]2[C@@H](OCc1ccccc1)CC3` (some centres not stated), the TGI in the experiment with OVCAR-4 ovarian, in the experiment on KM12 colon, with CCRF-CEM leukemia, in the experiment with IGROV1 ovarian, in the experiment with HCT-15 colon and with SNB-19 CNS was greater than 100 µM each time. Further, the TGI with SK-MEL-5 melanoma and with K-562 leukemia was greater than 100 µM in each case.

On to `Cc1cc2c(C)nn(Cc3ccc(Cl)cc3Cl)c2c(C#N)c1C`, for which the TGI with CCRF-CEM leukemia, with IGROV1 ovarian, in the experiment on ACHN renal, in the experiment with HCT-15 colon and in the experiment with SNB-19 CNS was greater than 100 µM throughout.

As to `Cc1cc(C)c2c(c1C)CN1CN2Cc2c(C)c(C)cc(C)c21`, the TGI in the experiment on OVCAR-4 ovarian, with KM12 colon, with CAKI-1 renal, in the experiment with CCRF-CEM leukemia, with IGROV1 ovarian and with ACHN renal was greater than 100 µM throughout. Besides, the TGI in the experiment on HCT-15 colon and in the experiment on K-562 leukemia was greater than 100 µM in each case.

With `O=C1NCC2=C1CCC1c3ccccc3CCN21` (configuration not stated), the TGI in the experiment on KM12 colon, in the experiment on CAKI-1 renal, in the experiment with CCRF-CEM leukemia, with IGROV1 ovarian, in the experiment with ACHN renal and in the experiment with HCT-15 colon was greater than 100 µM each time. Also, the TGI in the experiment with SNB-19 CNS and in the experiment with SK-MEL-5 melanoma was greater than 100 µM throughout.

With `CNS(=O)(=O)NN(C)S(=O)(=O)c1ccc(C)cc1`, the TGI with OVCAR-4 ovarian, in the experiment on KM12 colon, in the experiment on CAKI-1 renal, in the experiment with CCRF-CEM leukemia, with IGROV1 ovarian and in the experiment on ACHN renal was greater than 100 µM throughout. Also, the TGI in the experiment on SNB-19 CNS and in the experiment on SK-MEL-5 melanoma was greater than 100 µM in each case.

Consider `CC1(C)CC(C2CC(C)(C)CC(C)(C)[C@H]2O)[C@@H](O)C(C)(C)C1` (some centres not stated), for which the TGI in the experiment with KM12 colon, in the experiment on CCRF-CEM leukemia, in the experiment on IGROV1 ovarian, with ACHN renal, with HCT-15 colon and in the experiment on SNB-19 CNS was greater than 100 µM each time. The TGI in the experiment with SK-MEL-5 melanoma and in the experiment on K-562 leukemia was greater than 100 µM each time.

Take `CCCCCNC(=O)C1C(=O)N(CCCCC)C(=O)/C1=N\N` (configuration not stated): the TGI in the experiment with OVCAR-4 ovarian, in the experiment on KM12 colon, in the experiment on CCRF-CEM leukemia, with IGROV1 ovarian, in the experiment on ACHN renal and in the experiment with HCT-15 colon was greater than 100 µM each time. The TGI in the experiment on SNB-19 CNS, with SK-MEL-5 melanoma and with K-562 leukemia was greater than 100 µM each time.

As to `CC1=C(C(=O)Nc2cc(F)c(F)cc2F)C(c2cccc([N+](=O)[O-])c2)C(C(=O)Nc2ccccc2C(F)(F)F)=C(C)N1` (configuration not stated), the TGI in the experiment on OVCAR-4 ovarian was 66.1 µM; in the experiment on KM12 colon, 47.4 µM; with CAKI-1 renal it was 49.6 µM; in the experiment with CCRF-CEM leukemia, 55.1 µM; with IGROV1 ovarian, greater than 100 µM; in the experiment on ACHN renal it was 66.1 µM. Also, the TGI in the experiment with SNB-19 CNS is greater than 100 µM; in the experiment on SK-MEL-5 melanoma, 63.9 µM; in the experiment on K-562 leukemia, 36.7 µM.
